Data set [1] has as its system WNV (epidemic strain 3356). Description: microbe, parasite or virus in culture. The conditions noted are these: West Nile virus, Vero, 42 h. Type of data set: cell-based.
In data set [2] the test system is Vero cells.
For data set [3], the system named is G6871A mutant virus (WNV). Type of data set: cell-based. The note with it: Vero cells, 0.1 MOI.
Data set [4] is described as follows: in vitro. The note with it: African green monkey.
Data set [5] has as its system WNV VLP. Type of data set: cell-based, West Nile virus. The conditions noted are these: 1.5 μM.
Data set [6] deals with WNV NTPase (West Nile virus, UniProt Q9Q6P4). Description: Enzyme assay, recombinant WNV NTPase. The note with it: concentrations up to 100 μM.
In data set [7] the test system is HIV-1. The note with it: at a noncytotoxic concentration; Szlavik et al., 2004; cited from earlier work.
Data set [8] deals with Rluc2A-Rep of WNV in BHK-21 cells. Type of data set: cell-based, West Nile virus.
Data set [9] has as its target WNV RdRp (West Nile virus, UniProt Q9Q6P4). Description: Enzyme assay, recombinant WNV RdRp. The note with it: concentrations up to 100 μM.
Data set [10] relates to DENV-1 VLP. The class given is cell-based, dengue virus. The conditions noted are these: 1.5 μM.
Data set [11] has as its system WNV (WT and G6871A MT). The class given is cell-based. The conditions noted are these: 1.2 μM; Vero cells, MOI 5; each time point.
Data set [12] relates to poliovirus. The conditions noted are these: cited from earlier work.
Data set [13] addresses WNV MTase (West Nile virus, UniProt Q9Q6P4). Description: Enzyme assay, recombinant WNV MTase. The note with it: concentrations up to 100 μM.
Data set [14] concerns Vero cells containing DENV-1 replicon (Rluc-Neo-Rep). The class given is cell-based, dengue virus. The note with it: 1.5-1 μM for 24 h or 48 h.
Data set [15] relates to Vero cells containing WNV replicon (Rluc-Neo-Rep). The class given is cell-based, West Nile virus. The note with it: 1.5-1 μM for 24 h or 48 h.
Data set [16] has as its system VSV (New Jersey serotype). The class given is cell-based, vesicular stomatitis virus.
The subject of data set [17] is G6871A mutant WNV replicon (Rluc2A-Rep). Type of data set: cell-based, West Nile virus. The conditions noted are these: 1.5 μM; BHK-21 cells.
Data set [18] has as its system lycorine-resistant WNV (P12 viruses). Description: Resistance assay, lycorine-resistant P12 WNV. The class given is cell-based, West Nile virus. The conditions noted are these: 1.2 μM.
In data set [19] the test system is Rluc2A-Rep of DENV-1 in BHK-21 cells. The class given is cell-based, dengue virus.
For data set [20], the system named is WEEV (strain Cova 746). The class given is cell-based, Western equine encephalitis virus.
Data set [21] has as its system WNV. Description: Time-of-addition analysis in WNV infection. The class given is cell-based, West Nile virus. The note with it: 1.2 μM; Vero cells, WNV MOI 10; titers at 20 h post-infection.
The target in data set [22] is WNV protease (with NS2B) (West Nile virus, UniProt Q9Q6P4). Description: Enzyme assay, recombinant WNV protease. The note with it: concentrations up to 100 μM.

“Also recorded” adds a separate entry of the source.

The EC50 is the concentration at which the effect is half-maximal. The term cell viability denotes the share of living cells, or the viability signal relative to a control.

WNV protease (with NS2B), sequence (Q9Q6P4 1506-2124): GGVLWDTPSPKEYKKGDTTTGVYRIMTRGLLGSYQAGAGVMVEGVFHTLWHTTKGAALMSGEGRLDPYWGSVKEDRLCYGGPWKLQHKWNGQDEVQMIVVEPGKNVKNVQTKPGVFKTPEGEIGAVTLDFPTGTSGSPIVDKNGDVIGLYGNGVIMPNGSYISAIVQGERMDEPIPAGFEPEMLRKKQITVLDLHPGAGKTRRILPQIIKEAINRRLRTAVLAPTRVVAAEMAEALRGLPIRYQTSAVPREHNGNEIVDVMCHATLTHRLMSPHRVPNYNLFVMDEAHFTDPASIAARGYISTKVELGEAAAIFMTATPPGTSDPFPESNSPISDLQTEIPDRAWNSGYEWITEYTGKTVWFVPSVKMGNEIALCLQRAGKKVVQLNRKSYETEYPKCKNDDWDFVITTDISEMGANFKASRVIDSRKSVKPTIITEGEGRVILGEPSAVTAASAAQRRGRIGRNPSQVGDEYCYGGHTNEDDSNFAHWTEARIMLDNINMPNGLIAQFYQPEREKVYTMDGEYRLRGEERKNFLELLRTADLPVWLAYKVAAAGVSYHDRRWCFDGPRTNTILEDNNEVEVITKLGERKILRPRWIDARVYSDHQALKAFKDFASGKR
WNV protease (with NS2B), sequence (Q9Q6P4 1375-1505): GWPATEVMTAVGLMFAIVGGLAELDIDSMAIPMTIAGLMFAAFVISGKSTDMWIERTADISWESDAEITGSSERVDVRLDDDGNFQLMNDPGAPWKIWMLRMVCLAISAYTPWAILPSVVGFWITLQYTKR
WNV NTPase, sequence (Q9Q6P4 1506-2124): as the sequence (Q9Q6P4 1506-2124) above
WNV RdRp, sequence (Q9Q6P4 2529-3433): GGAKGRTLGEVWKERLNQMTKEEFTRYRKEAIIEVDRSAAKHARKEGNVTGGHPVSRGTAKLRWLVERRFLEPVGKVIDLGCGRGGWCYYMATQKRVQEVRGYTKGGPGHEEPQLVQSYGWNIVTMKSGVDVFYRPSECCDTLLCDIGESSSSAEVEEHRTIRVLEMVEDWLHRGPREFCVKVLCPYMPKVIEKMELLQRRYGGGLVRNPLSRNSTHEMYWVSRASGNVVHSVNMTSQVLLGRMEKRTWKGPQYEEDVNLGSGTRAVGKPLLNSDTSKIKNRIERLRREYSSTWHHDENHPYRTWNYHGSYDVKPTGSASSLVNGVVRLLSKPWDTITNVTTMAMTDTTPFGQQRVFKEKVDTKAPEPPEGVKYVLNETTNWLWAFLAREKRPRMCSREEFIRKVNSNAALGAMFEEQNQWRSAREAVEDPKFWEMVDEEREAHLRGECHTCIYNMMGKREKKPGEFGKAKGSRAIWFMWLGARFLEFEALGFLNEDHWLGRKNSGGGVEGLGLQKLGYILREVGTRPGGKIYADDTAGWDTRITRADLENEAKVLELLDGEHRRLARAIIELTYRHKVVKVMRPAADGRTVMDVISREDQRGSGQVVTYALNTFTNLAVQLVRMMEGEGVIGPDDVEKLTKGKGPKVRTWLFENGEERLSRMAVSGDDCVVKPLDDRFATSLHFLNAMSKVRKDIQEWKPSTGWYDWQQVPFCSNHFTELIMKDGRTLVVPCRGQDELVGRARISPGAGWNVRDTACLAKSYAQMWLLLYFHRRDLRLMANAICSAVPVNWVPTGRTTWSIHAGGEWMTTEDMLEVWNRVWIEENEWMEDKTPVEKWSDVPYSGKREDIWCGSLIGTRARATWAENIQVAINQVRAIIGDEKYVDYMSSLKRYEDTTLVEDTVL
WNV MTase, sequence (Q9Q6P4 2529-3433): as above

`CC(=O)O[C@H]1[C@H]2c3cc4c(cc3CN3CCC(=C[C@@H]1OC(C)=O)[C@H]23)OCO4` [Compound 1180] returned an EC50 in data set [1] of 1.49 µM.
Same read-out and setting: in the case of `CC(=O)O[C@H]1[C@H]2c3cc4c(cc3CN3CCC(=C[C@@H]1O)[C@H]23)OCO4` [Compound 1181] it was 0.86 µM.
As to `CC(=O)O[C@H]1[C@H]2c3cc4c(cc3CN(C(=O)OCC(Cl)(Cl)Cl)[C@@H]2C(CCCl)=C[C@@H]1OC(C)=O)OCO4` [Compound 1193], the EC50 in data set [1] is over 300 µM. The same molecule yielded a CC50 in data set [2] (African green monkey) of over 300 µM.
For the molecule `CC(=O)OCCC1=C[C@H](OC(C)=O)[C@@H](OC(C)=O)[C@H]2c3cc4c(cc3CN(C(=O)OCC(Cl)(Cl)Cl)[C@H]12)OCO4` [Compound 1194], the EC50 in data set [1] came out at 72 µM. In addition, the CC50 in data set [2] (African green monkey) is over 300 µM.
The like results for `CC(=O)O[C@H]1[C@H]2c3cc4c(cc3C(=O)N3CCC(=C[C@@H]1OC(C)=O)[C@H]23)OCO4` [Compound 1197] were, in that order, at least 300 µM and over 300 µM.
Regarding `CC(C)(C)[Si](C)(C)O[C@H]1C=C2CCN3Cc4cc5c(cc4[C@H]([C@@H]1O)[C@@H]23)OCO5` [Compound 1198], in data set [1], a half-maximal response (EC50) required 0.73 µM.
Turning to `CC(=O)O[C@@H]1C(=O)C=C2CCN3Cc4cc5c(cc4[C@H]1[C@@H]23)OCO5` [Compound 1200], the “resistance of G6871A mutant virus to the compound” value in data set [3] is reported as “resistant”. The CC50 in data set [4] and in data set [2] (African green monkey) was over 300 µM in each case. In data set [1], this molecule came in with an EC50 of 0.19 µM.
With `O[C@H]1[C@H]2c3cc4c(cc3CN3CCC(=C[C@@H]1O)[C@H]23)OCO4` [Lycorine], the “reduction of luciferase signals, WNV VLP-infected cells” value in data set [5] is reported as 1,400 fold. In [3], the “resistance of G6871A mutant virus to the compound” value is “showed a resistance level close to those of the P12 viruses”. Besides, in data set [6], the “suppression of WNV NTPase activity” value is “None of the enzyme activities were suppressed”. In data set [7], the “inhibition of HIV-1” value is on record as “does not inhibit”. The “suppression of early luciferase signals (viral translation), WNV replicon” value in [8] (1.5 μM, 2, 4, and 6 h p.t.) is given as at most 30%. For the same molecule, the “reduction of late luciferase signals (RNA synthesis), WNV replicon” value in data set [8] (1.5 μM, 24, 30 and 48 h p.t.) was over 99%. For the same molecule, the “suppression of WNV RdRp activity” value in data set [9] is given as “None of the enzyme activities were suppressed”. Further, the “reduction of luciferase signals, DENV-1 VLP-infected cells” value in data set [10] is 1,200 fold. In addition, in data set [11], the “viral protein expression (NS1, NS3, NS5), western blotting” value is reported as “suppressed viral protein expression”. The “suppression of poliovirus viral translation” value in data set [12] is about 90%. For the same molecule, the “suppression of WNV MTase activity” value in data set [13] is “None of the enzyme activities were suppressed”. Moreover, the midpoint of the response in [1], the EC50, lay at 0.23 µM. In addition, the “luciferase activities in DENV Rluc-Neo-Rep cells” value in [14] is listed as “reduced luciferase activities”. Moreover, the “luciferase activities in WNV Rluc-Neo-Rep cells” value in [15] is reported as “reduced luciferase activities”. For the same molecule, the “inhibition of VSV (viral titer)” value in data set [16] is “did not inhibit; also recorded: suppressed titers of neither WEEV nor VSV; also recorded: does not inhibit”. The “suppression of reporting signals at 2, 4, and 6 h p.t., G6871A mutant replicon” value in data set [17] is recorded as at most 30%. Further, the “increase of resistance of the P12 viruses over that of the WT” value in data set [18] is “approximately 100 fold”. Moreover, the “reduction of viral titers of P12 virus-infected cells” value in [18] (Vero cells, MOI 0.1, 42 h p.i.) is “approximately 10 fold”. For the same molecule, the “suppression of early luciferase signals (viral translation), DENV-1 replicon” value in data set [19] (1.5 μM, 2, 4, and 6 h p.t.) is given as at most 30%. The “reduction of late luciferase signals (RNA synthesis), DENV-1 replicon” value in data set [19] (1.5 μM, 24, 30 and 48 h p.t.) is recorded as over 99%. The “inhibition of WEEV (viral titer)” value in data set [20] is listed as “did not inhibit; also recorded: suppressed titers of neither WEEV nor VSV; also recorded: does not inhibit”. Besides, the “antiviral activity when added after 10 h post-infection” value in data set [21] is listed as “completely lost its antiviral activity; also recorded: completely lost the inhibitory activity”. In addition, the “suppression of WNV protease (with NS2B) activity” value in data set [22] is reported as “None of the enzyme activities were suppressed”. Further, in data set [2] (African green monkey), the CC50 was 24 µM and the cell viability is listed as over 90%. For the same molecule, in data set [2] (at 31 μM), the “decrease of viability of Vero cells” value is reported as about 50%.

Values taken from patent US20110212986A1, “ANTI-FLAVIVIRUS THERAPEUTIC” (priority 2008, published 2011).
